One assay has as its target T1, XIAP BIR3 (Homo sapiens, UniProt P98170).
T1 construct: covering amino acids 241 to 356; XIAP BIR3; made in house; host or cells: E. coli
Description: XIAP BIR3 binding assay (DELFIA), displacement of SMAC peptide. Conditions: GST-fusion BIR3 domain (aa 241 to 356) 10 nM, SMAC peptide 10 nM; activity of the (S)-isomers. In outline: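 Each BIR3 domain (10 nM) incubated with biotinylated N-terminal SMAC peptide (10 nM) and compound for 1 h at room temp in Tris/NaCl buffer with BSA, DTT and Triton X-100. Captured on streptavidin plates; bound BIR3 detected by Eu-labelled anti-GST time-resolved fluorescence, giving IC50 values.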

A further assay addresses T2, cIAP1 BIR3 (Homo sapiens, UniProt Q13490).
T2 construct: covering amino acids 256 to 363; cIAP1 BIR3; made in house; host or cells: E. coli
In words: cIAP1 BIR3 binding assay (DELFIA), displacement of SMAC peptide. Conditions: GST-fusion BIR3 domain (aa 256 to 363) 10 nM, SMAC peptide 10 nM; activity of the (S)-isomers. As for the experimental part:
Biological Methods XIAP BIR3 and cIAP1 BIR3 Binding Assays (DELFIA)
Peptide […]-Lys(Biotin), representing the N-terminus of mature human SMAC (SMAC peptide), was used as interaction partner in the protein-peptide interaction assay.
BIR3 domains (10 nM) were incubated with SMAC peptide (10 nM) in Assay Buffer (50 mM Tris, 120 mM NaCl, 0.1% BSA, 1 mM DTT, 0.05% TritonX100) for one hour at room temperature in the presence of inhibitiory compounds. The assay mixture was transferred to a strepatvidin coated plate and incubated for one hour at room temperature to allow binding of the biotinylated peptide and associated BIR3 domains to the plate. After several washing steps Eu labeled anti-GST antibody (e.g. Perkin Elmer DELFIA Eu-N1-antiGST AD0250) was added to detect BIR3 domain-SMAC peptide interactions according to Perkin Elmer's instructions. […] Time resolved Europium fluoresecence was measured in a Wallac Victor using Standard assay settings.
DELFIA assay results were plotted against compound concentrations and Software GraphPad Prizm was used to calculate half maximal inhibitory concentrations (IC50 values).

The record followed here is patent US8859541B2, “6-alkynylpyridines” (Boehringer Ingelheim International GmbH, priority 2012, dated 2014).

By IC50 is commonly meant the concentration that inhibits the measured activity by half. A low value points to higher potency.

T1 sequence (P98170 241-356): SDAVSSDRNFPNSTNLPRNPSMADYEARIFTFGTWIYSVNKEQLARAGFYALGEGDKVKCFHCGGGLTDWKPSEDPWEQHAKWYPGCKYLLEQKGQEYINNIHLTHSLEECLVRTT
T2 sequence (Q13490 256-363): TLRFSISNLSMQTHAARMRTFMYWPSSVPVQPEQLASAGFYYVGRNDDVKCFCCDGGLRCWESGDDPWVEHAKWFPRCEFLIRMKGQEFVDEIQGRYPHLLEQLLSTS

Turning to `CNC(C)C(=O)Nc1ccc(-c2cncc(C(=O)OC)c2)c(C#Cc2cccc(C)c2)n1` (stereo not drawn) [Example 13, methyl 5-[6-[[2-(methyl-amino)propanoyl]amino]-2-[2-(3-methylphenyl)ethynyl]-pyridin-3-yl]pyridine-3-carboxylate], the values for the IC50 on XIAP BIR3 and at cIAP1 BIR3 were 96 nM and 12 nM, respectively. Regarding `CNC(C)C(=O)Nc1ccc(-c2c(C)nc3ccccn23)c(C#Cc2ccc3c(ccc(=O)n3C)c2)n1` (stereo not drawn) [Example 26, 2-(methylamino)-N-[5-(2-methylimidazo[1,2-a]pyridin-3-yl)-6-[2-(1-methyl-2-oxoquinolin-6-yl)ethynyl]pyridin-2-yl]propanamide], the IC50 at XIAP BIR3 amounted to 579 nM; on cIAP1 BIR3, 1 nM. The matching figures for `CNC(C)C(=O)Nc1ccc(-c2c(C)nc3ccccn23)c(C#Cc2ccc3ncccc3c2)n1` (stereo not drawn) [Example 28, 2-(methylamino)-N-[5-(2-methylimidazo[1,2-a]pyridin-3-yl)-6-(2-quinolin-6-ylethynyl)-pyridin-2-yl]propanamide]: 200 nM and 1 nM.

Regarding `CNC(C)C(=O)Nc1ccc(-c2c(C)nc3ccccn23)c(C#Cc2ccc3cnccc3c2)n1` (stereo not drawn) [Example 29, N-[6-(2-isoquinolin-6-yl-ethynyl)-5-(2-methyl-imidazo[1,2-a]pyridin-3-yl)-pyridin-2-yl]-2-(methylamino)-propanamide], the IC50 on XIAP BIR3 was found to be 145 nM; on cIAP1 BIR3 it was 1 nM.

For the molecule `CNC(C)C(=O)Nc1ccc(-c2c(C)nc3ccccn23)c(C#Cc2ccc3nc(C)ccc3c2)n1` (stereo not drawn) [Example 30, 2-(methylamino)-N-[5-(2-methylimidazo[1,2-a]pyridin-3-yl)-6-[2-(2-methylquinolin-6-yl)ethynyl]pyridin-2-yl]propan-amide], the IC50 worked out at 417 nM at XIAP BIR3 and 1 nM on cIAP1 BIR3. As to `CNC(C)C(=O)Nc1ccc(-c2c(C)nc3ccccn23)c(C#Cc2ccc3c(c2)CN(C)C3=O)n1` (stereo not drawn) [Example 31, 2-(methylamino)-N-[5-(2-methylimidazo[1,2-a]pyridin-3-yl)-6-[2-(2-methyl-1-oxo-3H-isoindol-5-yl)ethynyl]pyridin-2-yl]propanamide], the results for the IC50 at XIAP BIR3 and at cIAP1 BIR3 were 228 nM and 1 nM, respectively. For `CNC(C)C(=O)Nc1ccc(-c2c(C)nc3ccccn23)c(C#Cc2ccc3c(c2)OCC(=O)N3C)n1` (stereo not drawn) [Example 33, 2-(methylamino)-N-[5-(2-methylimidazo[1,2-a]pyridin-3-yl)-6-[2-(4-methyl-3-oxo-1,4-benzoxazin-7-yl)ethynyl]-pyridin-2-yl]propanamide], in that order: 277 nM and 1 nM. Consider `CNC(C)C(=O)Nc1ccc(-c2c(C)nc3ccccn23)c(C#Cc2ccc(-c3ccon3)cc2)n1` (stereo not drawn) [Example 34, 2-(methylamino)-N-[5-(2-methylimidazo[1,2-a]pyridin-3-yl)-6-[2-[4-(1,2-oxazol-3-yl)-phenyl]ethynyl]pyridin-2-yl]-propanamide], for which the IC50 on XIAP BIR3 came to 279 nM; on cIAP1 BIR3 it was 1 nM.

As to `CNC(C)C(=O)Nc1ccc(-c2c(C)nc(N3CCOCC3)nc2C)c(C#Cc2ccc3c(ccc(=O)n3C)c2)n1` (stereo not drawn) [Example 35, N-[5-(4,6-dimethyl-2-morpholin-4-ylpyrimidin-5-yl)-6-[2-(1-methyl-2-oxoquinolin-6-yl)ethynyl]pyridin-2-yl]-2-(methylamino)propanamide], the results for the IC50 at XIAP BIR3 and at cIAP1 BIR3 were 1480 nM and 1 nM, respectively. For `CNC(C)C(=O)Nc1ccc(-c2c(C)nc3ccccn23)c(C#Cc2ccc(-c3cccnc3)cc2)n1` (stereo not drawn) [Example 36, 2-(methylamino)-N-[5-(2-methylimidazo[1,2-a]pyridin-3-yl)-6-[2-(4-pyridin-3-ylphenyl)-ethynyl]pyridin-2-yl]propan-amide], in that order: 112 nM and 1 nM. Regarding `CNC(C)C(=O)Nc1ccc(-c2c(C)nc3ccccn23)c(C#Cc2ccc(-n3cncn3)cc2)n1` (stereo not drawn) [Example 37, 2-(methylamino)-N-[5-(2-methylimidazo[1,2-a]pyridin-3-yl)-6-[2-[4-(1,2,4-triazol-1-yl)-phenyl]ethynyl]pyridin-2-yl]-propanamide], the concentration for half-maximal inhibition (IC50) at XIAP BIR3 is 166 nM; at cIAP1 BIR3, 1 nM. For `CNC(C)C(=O)Nc1ccc(-c2c(-c3ccncc3)nc3cc(C)ccn23)c(C#Cc2ccc(Cl)c(Cl)c2)n1` (stereo not drawn) [Example 39, N-[6-[2-(3,4-dichlorophenyl)-ethynyl)-5-(7-methyl-2-pyridin-4-ylimidazo[1,2-a]pyridin-3-yl)-pyridin-2-yl]-2-(methylamino)-propanamide], in that order: 87 nM and 1 nM. With `CC(N)C(=O)Nc1cccc(C#CC2=CCCCC2)n1` (stereo not drawn) [Example 225, 2-amino-N-[6-[2-(cyclohexen-1-yl)ethynyl]pyridin-2-yl]propanamide], the IC50 on XIAP BIR3 amounted to 7040 nM. In the case of `CC(N)C(=O)Nc1cc2ccccc2c(C#Cc2cncs2)n1` (stereo not drawn) [Example 227, 2-amino-N-[1-[2-(1,3-thiazol-5-yl)ethynyl]isoquinolin-3-yl]-propanamide], the IC50 at XIAP BIR3 turned out to be 1890 nM. Same read-out and setting: for `CC(N)C(=O)Nc1cccc(C#Cc2c(F)cccc2F)n1` (stereo not drawn) [Example 230, 2-amino-N-[6-[2-(2,6-difluorophenyl)ethynyl]pyridin-2-yl]propanamide] the value was 2410 nM; for `CC(N)C(=O)Nc1cccc(C#Cc2cc(Cl)cc(Cl)c2)n1` (stereo not drawn) [Example 231, 2-amino-N-[6-[2-(3,5-dichlorophenyl)ethynyl]pyridin-2-yl]propanamide], 4860 nM. Same read-out and setting: for `CC(N)C(=O)Nc1cccc(C#Cc2cc(F)cc(F)c2)n1` (stereo not drawn) [Example 233, 2-amino-N-[6-[2-(3,5-difluorophenyl)ethynyl]pyridin-2-yl]propanamide] the value was 2910 nM; for `Cc1cc(C)cc(C#Cc2cccc(NC(=O)C(C)N)n2)c1` (stereo not drawn) [Example 235, 2-amino-N-[6-[2-(3,5-dimethylphenyl)ethynyl]pyridin-2-yl]propanamide], 2190 nM. Consider `CC(N)C(=O)Nc1cccc(C#Cc2c(Cl)cccc2Cl)n1` (stereo not drawn) [Example 236, 2-amino-N-[6-[2-(2,6-dichlorophenyl)ethynyl]pyridin-2-yl]propanamide], for which the half-maximal inhibitory concentration (IC50) on XIAP BIR3 came out at 1970 nM. This IC50 and that of the molecule before are within 1.5-fold of each other.

The molecule `CC(N)C(=O)Nc1cccc(C#Cc2nccs2)n1` (stereo not drawn) [Example 237, 2-amino-N-[6-[2-(1,3-thiazol-2-yl)ethynyl]pyridin-2-yl]propanainide] registered an IC50 on XIAP BIR3 of 5920 nM. The same measure, in the same setting: then `CC(N)C(=O)Nc1cccc(C#Cc2cscn2)n1` (stereo not drawn) [Example 238, 2-amino-N-[6-[2-(1,3-thiazol-4-yl)ethynyl]pyridin-2-yl]propanamide], with 7190 nM. Still for that read-out and setting: then `CC(N)C(=O)Nc1cccc(C#Cc2cncs2)n1` (stereo not drawn) [Example 239, 2-amino-N-[6-[2-(1,3-thiazol-5-yl)ethynyl]pyridin-2-yl]propanamide], with 4580 nM; and `CC(N)C(=O)Nc1cccc(C#Cc2ccco2)n1` (stereo not drawn) [Example 241, 2-amino-N-[6-[2-(furan-2-yl)ethynyl]pyridin-2-yl]propanamide], with 3200 nM; and `CC(N)C(=O)Nc1cccc(C#Cc2ccc3ccccc3c2)n1` (stereo not drawn) [Example 242, 2-amino-N-[6-(2-naphthalen-2-ylethynyl)pyridin-2-yl]propanamide], with 4230 nM. `CNC(C)C(=O)Nc1ccc(N(C)S(=O)(=O)c2ccccc2)c(C#Cc2ccccc2)n1` (stereo not drawn) [Example 243, N-[5-[benzenesulfonyl(methyl)amino]-6-(2-phenylethynyl)pyridin-2-yl]-2-(methylamino)propanamide] came in with an IC50 on XIAP BIR3 of 160 nM.

Take `CNC(C)C(=O)Nc1ccc(N(C)C(=O)C2CCOCC2)c(C#Cc2ccccc2)n1` (stereo not drawn) [Example 244, N-methyl-N-[6-[2-(methylamino)propanoylamino]-2-(2-phenylethynyl)pyridin-3-yl]oxane-4-carboxamide]: the concentration for half-maximal inhibition (IC50) at XIAP BIR3 was 1470 nM. As for `CNC(C)C(=O)Nc1ccc(NC(=O)C2CCCC2)c(C#Cc2ccccc2)n1` (stereo not drawn) [Example 245, N-[6-[[2-(methylamino)-propanoyl]amino]-2-(2-phenylethynyl)pyridin-3-yl]-cyclopentanecarboxamide], the IC50 on XIAP BIR3 worked out at 1290 nM. `CNC(C)C(=O)Nc1ccc(NC(=O)C2CCOCC2)c(C#Cc2ccccc2)n1` (stereo not drawn) [Example 246, N-[6-[[2-(methylamino)-propanoyl]amino]-2-(2-phenylethynyl)pyridin-3-yl]-oxane-4-carboxamide] gave an IC50 at XIAP BIR3 of 1520 nM. The same measure, in the same setting: for `CNC(C)C(=O)Nc1ccc(N(C)C(=O)c2ccccc2)c(C#Cc2ccccc2)n1` (stereo not drawn) [Example 247, N-methyl-N-[6-[[2-(methyl-amino)propanoyl]amino]-2-(2-phenylethynyl)pyridin-3-yl]-benzamide] the value was 745 nM; for `CNC(C)C(=O)Nc1ccc(N(C)C(=O)C2CCCC2)c(C#Cc2ccccc2)n1` (stereo not drawn) [Example 248, N-methyl-N-[6-[[2-(methyl-amino)propanoyl]amino]-2-(2-phenylethynyl)pyridin-3-yl]-cyclopentanecarboxamide], 794 nM.
